Converted amounts (≈) assume the structure as drawn.
Experiments:
Format in all cases: functional
[1] = test system: Staphylococcus aureus; experiment: Antibacterial activity against constitutive macrolide, lincosamide, streptogramin-resistant Staphylococcus aureus PK2 by broth microdilution method
[2] = test system: Staphylococcus aureus; experiment: Antibacterial activity against erythromycin-sensitive Staphylococcus aureus ATCC 13709 by broth microdilution method
[3] = test system: Streptococcus pyogenes; experiment: Antibacterial activity against inducible macrolide-lincosamide-streptogramin B resistant Streptococcus pyogenes Finland 11 by broth microdilution method
[4] = test system: Haemophilus influenzae; experiment: Antibacterial activity against Haemophilus influenzae ATCC 49247 by broth microdilution method
[5] = test system: Streptococcus pyogenes; experiment: Antibacterial activity against macrolide, lincosamide, streptogramin-resistant Streptococcus pyogenes 166 GR-Micro by broth microdilution method
[6] = test system: Streptococcus pneumoniae; experiment: Antibacterial activity against efflux-mediated macrolide-resistant Streptococcus pneumoniae Ci137 by broth microdilution method
[7] = test system: Streptococcus pneumoniae; experiment: Antibacterial activity against inducible macrolide-resistant, constitutive lincosamide, streptogramin-resistant Streptococcus pneumoniae 134 GR M by broth microdilution method
[8] = test system: Staphylococcus aureus; experiment: Antibacterial activity against inducible macrolide-lincosamide-streptogramin B resistant Staphylococcus aureus 90256 by broth microdilution method
[9] = test system: Streptococcus pneumoniae; experiment: Antibacterial activity against constitutive macrolide, lincosamide, streptogramin-resistant Streptococcus pneumoniae 58 spain by broth microdilution method
[10] = test system: Streptococcus pyogenes; experiment: Antibacterial activity against erythromycin-sensitive Streptococcus pyogenes 3565 by broth microdilution method
[11] = test system: Staphylococcus aureus; experiment: Antibacterial activity against efflux-mediated macrolide-resistant Staphylococcus aureus PK1 by broth microdilution method
[12] = test system: Streptococcus pyogenes; experiment: Antibacterial activity against efflux-mediated macrolide-resistance Streptococcus pyogenes 2 Finland by broth microdilution method
[13] = test system: Streptococcus pneumoniae; experiment: Antibacterial activity against erythromycin-sensitive Streptococcus pneumoniae SP030 by broth microdilution method
[14] = test system: Moraxella catarrhalis; experiment: Antibacterial activity against Moraxella catarrhalis ATCC 23246 by broth microdilution method

## CC[C@H]1OC(=O)[C@H](C)[C@@H](O[C@H]2C[C@@](C)(OC)[C@@H](OC(=O)CCOCCNc3ccc4c(c3)c(=O)c(C(=O)O)cn4C3CC3)[C@H](C)O2)[C@H](C)[C@@H](O[C@@H]2O[C@H](C)C[C@H](N(C)C)[C@H]2O)[C@](C)(O)C[C@@H](C)CN(C)[C@H](C)[C@@H](O)[C@]1(C)O
[1]
  MIC: 32 µg/mL (≈ 29.3 µM)
[2]
  MIC: 0.5 µg/mL (≈ 0.458 µM)
[3]
  MIC: ≤ 0.125 µg/mL
[4]
  MIC: 1 µg/mL (≈ 0.916 µM)
[5]
  MIC: ≤ 0.125 µg/mL
[6]
  MIC: ≤ 0.125 µg/mL
[7]
  MIC: 0.25 µg/mL (≈ 0.229 µM)
[8]
  MIC: 0.5 µg/mL (≈ 0.458 µM)
[9]
  MIC: ≤ 0.125 µg/mL
[10]
  MIC: ≤ 0.125 µg/mL
[11]
  MIC: 1 µg/mL (≈ 0.916 µM)
[12]
  MIC: ≤ 0.125 µg/mL
[13]
  MIC: ≤ 0.125 µg/mL
[14]
  MIC: 0.5 µg/mL (≈ 0.458 µM)

## CC[C@H]1OC(=O)[C@H](C)[C@@H](O[C@H]2C[C@@](C)(OC)[C@@H](OC(=O)CCOCCOCCNc3cc4c(=O)c(C(=O)O)cn(CC)c4cc3Cl)[C@H](C)O2)[C@H](C)[C@@H](O[C@@H]2O[C@H](C)C[C@H](N(C)C)[C@H]2O)[C@](C)(O)C[C@@H](C)CN(C)[C@H](C)[C@@H](O)[C@]1(C)O
[1]
  MIC: 16 µg/mL (≈ 13.8 µM)
[2]
  MIC: ≤ 0.125 µg/mL
[3]
  MIC: ≤ 0.125 µg/mL
[4]
  MIC: 1 µg/mL (≈ 0.864 µM)
[5]
  MIC: 0.25 µg/mL (≈ 0.216 µM)
[6]
  MIC: ≤ 0.125 µg/mL
[7]
  MIC: ≤ 0.125 µg/mL
[8]
  MIC: ≤ 0.125 µg/mL
[9]
  MIC: ≤ 0.125 µg/mL
[10]
  MIC: ≤ 0.125 µg/mL
[11]
  MIC: ≤ 0.125 µg/mL
[12]
  MIC: ≤ 0.125 µg/mL
[13]
  MIC: ≤ 0.125 µg/mL
[14]
  MIC: 0.5 µg/mL (≈ 0.432 µM)

## CC[C@H]1OC(=O)[C@H](C)[C@@H](O[C@H]2C[C@@](C)(OC)[C@@H](OC(=O)CCOCCNc3cc4c(=O)c(C(=O)OC(C)C)cn(C5CC5)c4cc3Cl)[C@H](C)O2)[C@H](C)[C@@H](O[C@@H]2O[C@H](C)C[C@H](N(C)C)[C@H]2O)[C@](C)(O)C[C@@H](C)CN(C)[C@H](C)[C@@H](O)[C@]1(C)O
[1]
  MIC: > 64 µg/mL
[2]
  MIC: 0.5 µg/mL (≈ 0.428 µM)
[3]
  MIC: ≤ 0.125 µg/mL
[4]
  MIC: 2 µg/mL (≈ 1.71 µM)
[5]
  MIC: ≤ 0.125 µg/mL
[6]
  MIC: ≤ 0.125 µg/mL
[7]
  MIC: ≤ 0.125 µg/mL
[8]
  MIC: 2 µg/mL (≈ 1.71 µM)
[9]
  MIC: ≤ 0.125 µg/mL
[10]
  MIC: ≤ 0.125 µg/mL
[11]
  MIC: 2 µg/mL (≈ 1.71 µM)
[12]
  MIC: ≤ 0.125 µg/mL
[13]
  MIC: ≤ 0.125 µg/mL

## CC[C@H]1OC(=O)[C@H](C)[C@@H](O[C@H]2C[C@@](C)(OC)[C@@H](OC(=O)CCOCCNc3ccc4c(c3)c(=O)c(C(=O)OC(C)C)cn4C3CC3)[C@H](C)O2)[C@H](C)[C@@H](O[C@@H]2O[C@H](C)C[C@H](N(C)C)[C@H]2O)[C@](C)(O)C[C@@H](C)CN(C)[C@H](C)[C@@H](O)[C@]1(C)O
[1]
  MIC: > 64 µg/mL
[2]
  MIC: 0.5 µg/mL (≈ 0.441 µM)
[3]
  MIC: ≤ 0.125 µg/mL
[4]
  MIC: 4 µg/mL (≈ 3.53 µM)
[5]
  MIC: ≤ 0.125 µg/mL
[6]
  MIC: ≤ 0.125 µg/mL
[7]
  MIC: ≤ 0.125 µg/mL
[8]
  MIC: 16 µg/mL (≈ 14.1 µM)
[9]
  MIC: ≤ 0.125 µg/mL
[10]
  MIC: ≤ 0.125 µg/mL
[11]
  MIC: 8 µg/mL (≈ 7.06 µM)
[12]
  MIC: ≤ 0.125 µg/mL
[13]
  MIC: ≤ 0.125 µg/mL
[14]
  MIC: 4 µg/mL (≈ 3.53 µM)

## CCCOC(=O)c1cn(C2CC2)c2ccc(NCCOCCC(=O)O[C@H]3[C@H](C)O[C@@H](O[C@H]4[C@H](C)[C@@H](O[C@@H]5O[C@H](C)C[C@H](N(C)C)[C@H]5O)[C@](C)(O)C[C@@H](C)CN(C)[C@H](C)[C@@H](O)[C@](C)(O)[C@@H](CC)OC(=O)[C@@H]4C)C[C@@]3(C)OC)cc2c1=O
[1]
  MIC: > 64 µg/mL
[2]
  MIC: 0.5 µg/mL (≈ 0.441 µM)
[3]
  MIC: ≤ 0.125 µg/mL
[4]
  MIC: 2 µg/mL (≈ 1.76 µM)
[5]
  MIC: ≤ 0.125 µg/mL
[6]
  MIC: ≤ 0.125 µg/mL
[7]
  MIC: ≤ 0.125 µg/mL
[8]
  MIC: 4 µg/mL (≈ 3.53 µM)
[9]
  MIC: ≤ 0.125 µg/mL
[10]
  MIC: ≤ 0.125 µg/mL
[11]
  MIC: 2 µg/mL (≈ 1.76 µM)
[12]
  MIC: ≤ 0.125 µg/mL
[13]
  MIC: ≤ 0.125 µg/mL

## CCCOC(=O)c1cn(C2CC2)c2cc(Cl)c(NCCOCCC(=O)O[C@H]3[C@H](C)O[C@@H](O[C@H]4[C@H](C)[C@@H](O[C@@H]5O[C@H](C)C[C@H](N(C)C)[C@H]5O)[C@](C)(O)C[C@@H](C)CN(C)[C@H](C)[C@@H](O)[C@](C)(O)[C@@H](CC)OC(=O)[C@@H]4C)C[C@@]3(C)OC)cc2c1=O
[1]
  MIC: > 64 µg/mL
[2]
  MIC: 1 µg/mL (≈ 0.856 µM)
[3]
  MIC: ≤ 0.125 µg/mL
[4]
  MIC: 4 µg/mL (≈ 3.43 µM)
[5]
  MIC: ≤ 0.125 µg/mL
[6]
  MIC: ≤ 0.125 µg/mL
[7]
  MIC: ≤ 0.125 µg/mL
[8]
  MIC: 1 µg/mL (≈ 0.856 µM)
[9]
  MIC: ≤ 0.125 µg/mL
[10]
  MIC: ≤ 0.125 µg/mL
[11]
  MIC: 1 µg/mL (≈ 0.856 µM)
[12]
  MIC: ≤ 0.125 µg/mL
[13]
  MIC: ≤ 0.125 µg/mL
[14]
  MIC: 2 µg/mL (≈ 1.71 µM)

## CC[C@H]1OC(=O)[C@H](C)[C@@H](O[C@H]2C[C@@](C)(OC)[C@@H](OC(=O)CCOCCOc3ccc4c(c3)c(=O)c(C(=O)OCC(C)=O)cn4C3CC3)[C@H](C)O2)[C@H](C)[C@@H](O[C@@H]2O[C@H](C)C[C@H](N(C)C)[C@H]2O)[C@](C)(O)C[C@@H](C)CN(C)[C@H](C)[C@@H](O)[C@]1(C)O
[1]
  MIC: 64 µg/mL (≈ 55.7 µM)
[2]
  MIC: 0.5 µg/mL (≈ 0.435 µM)
[3]
  MIC: ≤ 0.125 µg/mL
[4]
  MIC: 2 µg/mL (≈ 1.74 µM)
[5]
  MIC: ≤ 0.125 µg/mL
[6]
  MIC: 0.25 µg/mL (≈ 0.218 µM)
[7]
  MIC: 0.25 µg/mL (≈ 0.218 µM)
[8]
  MIC: 2 µg/mL (≈ 1.74 µM)
[9]
  MIC: 0.5 µg/mL (≈ 0.435 µM)
[10]
  MIC: ≤ 0.125 µg/mL
[11]
  MIC: 1 µg/mL (≈ 0.871 µM)
[12]
  MIC: ≤ 0.125 µg/mL
[13]
  MIC: ≤ 0.125 µg/mL
[14]
  MIC: 1 µg/mL (≈ 0.871 µM)

## CC[C@H]1OC(=O)[C@H](C)C(=O)[C@H](C)[C@@H](O[C@@H]2O[C@H](C)C[C@H](N(C)C)[C@H]2O)[C@](C)(OC)C[C@@H](C)C(=O)[C@H](C)[C@H]2N(CCCCn3cnc(-c4cccnc4)c3)C(=O)O[C@]12C [TELITHROMYCIN]
[1]
  MIC: > 64 µg/mL
[2]
  MIC: 0.125 µg/mL (≈ 0.154 µM)
[3]
  MIC: 0.06 µg/mL (≈ 0.0739 µM)
[4]
  MIC: 2 µg/mL (≈ 2.46 µM)
[5]
  MIC: 16 µg/mL (≈ 19.7 µM)
[6]
  MIC: 0.25 µg/mL (≈ 0.308 µM)
[7]
  MIC: 0.25 µg/mL (≈ 0.308 µM)
[8]
  MIC: ≤ 0.125 µg/mL
[9]
  MIC: 0.25 µg/mL (≈ 0.308 µM)
[10]
  MIC: ≤ 0.125 µg/mL
[11]
  MIC: ≤ 0.125 µg/mL
[12]
  MIC: 0.5 µg/mL (≈ 0.616 µM)
[13]
  MIC: ≤ 0.125 µg/mL
[14]
  MIC: ≤ 0.125 µg/mL

## CC[C@H]1OC(=O)[C@H](C)[C@@H](O[C@H]2C[C@@](C)(OC)[C@@H](OC(=O)CCOCCOc3cc4c(=O)c(C(=O)OCOC(=O)C(C)(C)C)cn(C5CC5)c4cc3Cl)[C@H](C)O2)[C@H](C)[C@@H](O[C@@H]2O[C@H](C)C[C@H](N(C)C)[C@H]2O)[C@](C)(O)C[C@@H](C)CN(C)[C@H](C)[C@@H](O)[C@]1(C)O
[1]
  MIC: > 64 µg/mL
[2]
  MIC: 1 µg/mL (≈ 0.806 µM)
[3]
  MIC: ≤ 0.125 µg/mL
[4]
  MIC: 4 µg/mL (≈ 3.22 µM)
[5]
  MIC: ≤ 0.125 µg/mL
[6]
  MIC: ≤ 0.125 µg/mL
[7]
  MIC: 0.25 µg/mL (≈ 0.201 µM)
[8]
  MIC: 4 µg/mL (≈ 3.22 µM)
[9]
  MIC: ≤ 0.125 µg/mL
[10]
  MIC: ≤ 0.125 µg/mL
[11]
  MIC: 2 µg/mL (≈ 1.61 µM)
[12]
  MIC: ≤ 0.125 µg/mL
[13]
  MIC: ≤ 0.125 µg/mL
[14]
  MIC: 4 µg/mL (≈ 3.22 µM)

## CCC(=O)CNC(=O)COC(=O)c1cn(C2CC2)c2ccc(NCCOCCC(=O)O[C@H]3[C@H](C)O[C@@H](O[C@H]4[C@H](C)[C@@H](O[C@@H]5O[C@H](C)C[C@H](N(C)C)[C@H]5O)[C@](C)(O)C[C@@H](C)CN(C)[C@H](C)[C@@H](O)[C@](C)(O)[C@@H](CC)OC(=O)[C@@H]4C)C[C@@]3(C)OC)cc2c1=O
[1]
  MIC: > 64 µg/mL
[2]
  MIC: 1 µg/mL (≈ 0.821 µM)
[3]
  MIC: ≤ 0.125 µg/mL
[4]
  MIC: 4 µg/mL (≈ 3.28 µM)
[5]
  MIC: ≤ 0.125 µg/mL
[6]
  MIC: ≤ 0.125 µg/mL
[7]
  MIC: ≤ 0.125 µg/mL
[8]
  MIC: 16 µg/mL (≈ 13.1 µM)
[9]
  MIC: ≤ 0.125 µg/mL
[10]
  MIC: ≤ 0.125 µg/mL
[11]
  MIC: 8 µg/mL (≈ 6.57 µM)
[12]
  MIC: ≤ 0.125 µg/mL
[13]
  MIC: ≤ 0.125 µg/mL
